Test [1] has as its target T1, TcK2 (T. cruzi eIF2α kinase 2, PERK homologue).
T1 construct: gene TcYC6_0089220; kinase domain KD5 (S659-I976)
The experiment in a line: LANCE TR-FRET kinase assay with p70S6K peptide; DSF ΔTm […] °C; knockout parasites less sensitive. It counts as biochemical, Trypanosoma cruzi. A general note: Time-resolved FRET reads energy transfer from a long-lived donor to a nearby acceptor.

Test [2] has the same target. Put plainly: LANCE TR-FRET kinase assay with p70S6K peptide; DSF ΔTm […] °C. It counts as biochemical, Trypanosoma cruzi.

Structures are written as SMILES.

Usually IC50 stands for the concentration at which inhibition is half-maximal. Lower therefore signals inhibition by little substance. Turning to `Cc1nc(Nc2ncc(C(=O)Nc3c(C)cccc3Cl)s2)cc(N2CCN(CCO)CC2)n1` [Dasatinib], in test [1], the half-maximal inhibitory concentration (IC50) came out at 190 ± 20 nM.

Consider `Cn1cc(-c2[nH]c3cc(NC(=O)[C@H](N)C4CCCCC4)cc4c3c2C=NNC4=O)cn1` [PF-477736], for which the IC50 in test [2] was determined as 670 ± 20 nM.

(Values after PMC10300260 (The Journal of Biological Chemistry, 2023).)
